Measured values from publication PMC6017193, “Structure-Based Discovery of a Series of 5H-Pyrrolo[2,3-b]pyrazine FGFR Kinase Inhibitors” (Molecules : A Journal of Synthetic Chemistry and Natural …, 2018).

What was measured:
FGFR1 = molecular target: T1, FGFR1 (Homo sapiens, UniProt P11362); assay: ELISA kinase assay, FGFR1 enzymatic activity; type: biochemical; settings: for inhibition at 0.01 µM: 0.01 μM (10 nM); for inhibition at 0.01 µM / inhibition at 0.1 µM / inhibition at 1 µM / inhibition at 5 µM / inhibition at 10 µM: mean of two separate experiments; for IC50: mean ± SD from two separate experiments
T1 construct: purchased Millipore
T1 sequence (P11362 22-822): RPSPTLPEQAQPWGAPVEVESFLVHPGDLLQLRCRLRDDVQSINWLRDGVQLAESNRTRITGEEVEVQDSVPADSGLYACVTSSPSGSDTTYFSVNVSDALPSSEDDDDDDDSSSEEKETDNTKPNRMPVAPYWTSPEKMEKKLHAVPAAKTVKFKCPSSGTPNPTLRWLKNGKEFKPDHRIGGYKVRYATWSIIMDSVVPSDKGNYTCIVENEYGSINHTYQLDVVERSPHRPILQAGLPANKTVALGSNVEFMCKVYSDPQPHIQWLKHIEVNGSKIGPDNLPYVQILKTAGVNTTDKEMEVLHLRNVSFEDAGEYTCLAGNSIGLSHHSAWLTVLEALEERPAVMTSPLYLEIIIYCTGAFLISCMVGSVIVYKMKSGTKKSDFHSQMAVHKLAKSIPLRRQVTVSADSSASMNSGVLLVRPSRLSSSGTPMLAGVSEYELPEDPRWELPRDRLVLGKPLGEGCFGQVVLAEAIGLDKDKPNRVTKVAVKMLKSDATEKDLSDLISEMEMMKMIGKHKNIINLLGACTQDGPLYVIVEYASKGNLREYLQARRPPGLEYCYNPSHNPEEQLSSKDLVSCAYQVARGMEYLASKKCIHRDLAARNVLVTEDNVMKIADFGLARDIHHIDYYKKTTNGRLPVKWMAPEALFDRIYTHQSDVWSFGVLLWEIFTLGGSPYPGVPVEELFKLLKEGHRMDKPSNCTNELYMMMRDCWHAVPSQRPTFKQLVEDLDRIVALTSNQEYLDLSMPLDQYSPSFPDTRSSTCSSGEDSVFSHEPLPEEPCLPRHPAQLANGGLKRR
Method: The effects of compounds on the activities of indicated (FGFR1 and c-Met) kinases were determined using enzyme-linked immunosorbent assays (ELISAs) with purified recombinant proteins. Briefly, 20 μg/mL poly (Glu, Tyr)4:1 (Sigma, St. Louis, MO, USA) was precoated in 96-well plates as a substrate. A 50-μL aliquot of 10 μmol/L ATP solution diluted in kinase reaction buffer (50 mmol/L HEPES (pH 7.4), 50 mmol/L MgCl2, 0.5 mmol/L MnCl2, 0.2 mmol/L Na3VO4, and 1 mmol/L DTT) was added to each well; 1 μL of various concentrations of compounds diluted in 1% DMSO (v/v) (Sigma) were then added to each reaction well. DMSO (1%, v/v) was used as the negative control. The kinase reaction was initiated by the addition of purified tyrosine kinase proteins FGFR1 (Millipore, Darmstadt, Germany) or c-Met (Millipore) diluted in 49 μL of kinase reaction buffer. After incubation for 60 min at 37 °C, the plate was washed three times with phosphate-buffered saline (PBS) containing 0.1% Tween 20 (T-PBS). Anti-phosphotyrosine (PY99) antibody (Sanra Cruz, Dallas, TX, USA) (100 μL; 1:500, diluted in 5 mg/mL bovine serum albumin (BSA) T-PBS) was then added. After a 30-min incubation at 37 °C, the plate was washed three times, and 100 μL of horseradish peroxidase-conjugated goat anti-mouse IgG (Calbiochem, Shanghai, China) (1:2000, diluted in 5 mg/mL BSA T-PBS) was added. The plate was then incubated at 37 °C for 30 min, and washed three times. A 100-μL aliquot of a solution containing 0.03% H2O2 and 2 mg/mL o-phenylenediamine in 0.1 mol/L citrate buffer (pH 5.5) was added. The reaction was terminated by the addition of 50 μL of 2 mol/L H2SO4 as the color changed, and the plate was analyzed using a multi-well spectrophotometer (SpectraMAX 190, Molecular Devices, Palo Alto, CA, USA) at 490 nm. The inhibition rate (%) was calculated using the following equation:IR = [1 − (A490/A490control)] × 100%.(1) where IR, A490, and A490control are the inhibition rate, the absorbance value of the tested compound at 490 nm, and the absorbance value of the negative control compound at 490 nm, respectively. The IC50 values were calculated from the inhibition curves in two separate experiments.

[1] = test system: KG1 leukemia cell line harboring FGFR1OP-FGFR1 fusion; assay: Cell proliferation assay in KG1 cells (SRB or MTT, 72 h); type: cell-based; settings: Homo sapiens, KG-1, mean ± SD from two separate experiments, read-out: KG1 IC50 (antiproliferation activity)
Method: Cell proliferation was examined in a FGFR1-translocated KG1 leukemia cell line harboring FGFR1OP-FGFR1 fusion. The original KG1 cell line was purchased from ATCC (CRL-8031), and cultured according the ATCC standard protocol. Cells were seeded in 96-well tissue culture plates. On the next day, the cells were exposed to various concentrations of compounds and further cultured for 72 h. Cell proliferation was then determined using sulforhodamine B (SRB, from Sigma-Aldrich, St Louis, MO, USA) or the thiazolyl blue tetrazolium bromide (MTT, from Sigma-Aldrich, St Louis, MO, USA) assay. The IC50 values were calculated by concentration- response curve fitting using the four-parameter method.

Row | Compound | inhibition at 0.01 µM (FGFR1) [%] | inhibition at 0.1 µM (FGFR1) [%] | inhibition at 1 µM (FGFR1) [%] | IC50 (FGFR1) [nM] | IC50 [1] [nM] | inhibition at 5 µM (FGFR1) [%] | inhibition at 10 µM (FGFR1) [%]
1 | Cn1cc(-c2cnc3ccn(S(=O)(=O)c4cn(CCF)cn4)c3n2)cn1 [Compound 12, 5-((1-(2-Fluoroethyl)-1H-imidazol-4-yl)sulfonyl)-3-(1-methyl-1H-pyrazol-4-yl)-5H-pyrrolo[2,3-b]pyrazine] |  |  |  |  |  | 68.9 | 89
2 | Cn1cc(-c2cnc3ccn(S(=O)(=O)c4c(Cl)nc5sccn45)c3n2)cn1 [Compound 9, 6-Chloro-5-((3-(1-methyl-1H-pyrazol-4-yl)-5H-pyrrolo[2,3-b]pyrazin-5-yl)sulfonyl)imidazo[2,1-b]thiazole] |  |  |  |  |  | 83.7 | 92.5
3 | Cn1cnc(S(=O)(=O)n2ccc3ncc(-c4cnn(C)c4)nc32)c1 [Compound 11, 5-((1-Methyl-1H-imidazol-4-yl)sulfonyl)-3-(1-methyl-1H-pyrazol-4-yl)-5H-pyrrolo[2,3-b]pyrazine] |  |  |  |  |  | 58.1 | 86
4 | CN(C)C(=O)Cn1cc(-c2cnc3ccn(S(=O)(=O)c4cn(CCF)cn4)c3n2)cn1 [Compound 22, 2-(4-(5-((1-(2-Fluoroethyl)-1H-imidazol-4-yl)sulfonyl)-5H-pyrrolo[2,3-b]pyrazin-3-yl)-1H-pyrazol-1-yl)-N,N-dimethylacetamide] | 0.4 | 2.5 | 15.3 |  |  |  | 
5 | CC(=O)Cn1cc(-c2cnc3ccn(S(=O)(=O)c4cn(CCF)cn4)c3n2)cn1 [Compound 18, 1-(4-(5-((1-(2-Fluoroethyl)-1H-imidazol-4-yl)sulfonyl)-5H-pyrrolo[2,3-b]pyrazin-3-yl)-1H-pyrazol-1-yl)propan-2-one] | 24.6 | 13.3 | 22.6 |  |  |  | 
6 | CS(=O)(=O)n1cc(-c2cnc3ccn(S(=O)(=O)c4cn(CCF)cn4)c3n2)cn1 [Compound 23, 5-((1-(2-Fluoroethyl)-1H-imidazol-4-yl)sulfonyl)-3-(1-(methylsulfonyl)-1H-pyrazol-4-yl)-5H-pyrrolo[2,3-b]pyrazine] | 20.9 | 37.1 | 82.3 |  |  |  | 
7 | Cn1cc(-c2cnc3ccn(S(=O)(=O)c4cnn5cccnc45)c3n2)cn1 [Compound 10, 3-(1-Methyl-1H-pyrazol-4-yl)-5-(pyrazolo[1,5-a]pyrimidin-3-ylsulfonyl)-5H-pyrrolo[2,3-b]pyrazine] |  |  |  |  |  | 77 | 91
8 | CC(=O)n1cc(-c2cnc3ccn(S(=O)(=O)c4cn(CCF)cn4)c3n2)cn1 [Compound 15, 1-(4-(5-((1-(2-fluoroethyl)-1H-imidazol-4-yl)sulfonyl)-5H-pyrrolo[2,3-b]pyrazin-3-yl)-1H-pyrazol-1-yl)ethan-1-one] | 35.9 | 25.9 | 70.9 |  |  |  | 

Next, values leading:

Row | inhibition at 0.01 µM (FGFR1) [%] | inhibition at 0.1 µM (FGFR1) [%] | inhibition at 1 µM (FGFR1) [%] | IC50 (FGFR1) [nM] | IC50 [1] [nM] | inhibition at 5 µM (FGFR1) [%] | inhibition at 10 µM (FGFR1) [%] | Compound
9 | 27.9 | 71.9 | 90.7 | 15.7 ± 4.8 | 187 ± 17.2 |  |  | O=S(=O)(c1c[nH]cn1)n1ccc2ncc(-c3cn[nH]c3)nc21 [Compound 27, 5-((1H-Imidazol-4-yl)sulfonyl)-3-(1H-pyrazol-4-yl)-5H-pyrrolo[2,3-b]pyrazine]
10 | 12.5 | 63.2 | 88.8 | 15.4 ± 3 | 98.5 ± 19.1 |  |  | Cn1cnc(S(=O)(=O)n2ccc3ncc(-c4cn[nH]c4)nc32)c1 [Compound 28, 5-((1-Methyl-1H-imidazol-4-yl)sulfonyl)-3-(1H-pyrazol-4-yl)-5H-pyrrolo[2,3-b]pyrazine]
11 | 53.7 | 79.5 | 94.6 | 3 ± 0.7 | 17.4 ± 8.7 |  |  | CCn1cnc(S(=O)(=O)n2ccc3ncc(-c4cn[nH]c4)nc32)c1 [Compound 29, 5-((1-ethyl-1H-imidazol-4-yl)sulfonyl)-3-(1H-pyrazol-4-yl)-5H-pyrrolo[2,3-b]pyrazine]
12 | 23.5 | 46.5 | 83 |  |  |  |  | COC(=O)C(C(=O)OC)n1cc(-c2cnc3ccn(S(=O)(=O)c4cn(CCF)cn4)c3n2)cn1 [Compound 25, Dimethyl 2-(4-(5-((1-(2-fluoroethyl)-1H-imidazol-4-yl)sulfonyl)-5H-pyrrolo[2,3-b]pyrazin-3-yl)-1H-pyrazol-1-yl)malonate]
13 | 26.8 | 33.6 | 69 |  |  |  |  | CCOC(=O)C(C(=O)OCC)n1cc(-c2cnc3ccn(S(=O)(=O)c4cn(CCF)cn4)c3n2)cn1 [Compound 26, Diethyl 2-(4-(5-((1-(2-fluoroethyl)-1H-imidazol-4-yl)sulfonyl)-5H-pyrrolo[2,3-b]pyrazin-3-yl)-1H-pyrazol-1-yl)malonate]
14 | 31.8 | 68.7 | 90.6 |  |  |  |  | O=S(=O)(c1cnc2cccnn12)n1ccc2ncc(-c3cn[nH]c3)nc21 [Compound 35, 5-(Imidazo[1,2-b]pyridazin-3-ylsulfonyl)-3-(1H-pyrazol-4-yl)-5H-pyrrolo[2,3-b]pyrazine]
15 |  | 26.4 | 73.9 |  |  |  |  | O=S(=O)(c1cnn2cccnc12)n1ccc2ncc(-c3cn[nH]c3)nc21 [Compound 34, 3-(1H-Pyrazol-4-yl)-5-(pyrazolo[1,5-a]pyrimidin-3-ylsulfonyl)-5H-pyrrolo[2,3-b]pyrazine]
